For 26 molecules, T/C results are on record in PubChem BioAssay AID192 (DTP/NCI, 2004).

Values joined by “and” are separate entries in the source; they are usually repeats but may differ in a detail not shown here. Equal values may be shown once. Toxic doses and inconclusive results are not listed.

The assay has as its system BDF1 mice, B16 melanoma ip, median survival T/C. Kind of assay: NCI In Vivo Anticancer Drug Screen. Data for tumor model B16 Melanoma (intraperitoneal) in B6D2F1 (BDF1) mice. As to conditions: endpoint: median survival time, higher = longer survival. In a few lines: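 Each result divides a survival or tumor-size measurement in the compound-treated group by the same measurement in the vehicle group.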

The mark [1] stands for this setting: dose: 10.0 mg/kg/injection, schedule: Q01DX009 (ip), vehicle: saline with Tween-80.
[2] abbreviates: dose: 6.25 mg/kg/injection, schedule: Q01DX009 (ip), vehicle: Klucel (hydroxypropylcellulose) (HPC).
The mark [3] stands for this setting: dose: 12.5 mg/kg/injection, schedule: Q01DX009 (ip), vehicle: Klucel (hydroxypropylcellulose) (HPC).
Where [4] appears, read: dose: 25.0 mg/kg/injection, schedule: Q01DX009 (ip), vehicle: Klucel (hydroxypropylcellulose) (HPC).
[5] abbreviates: dose: 50.0 mg/kg/injection, schedule: Q01DX009 (ip), vehicle: Klucel (hydroxypropylcellulose) (HPC).
Setting [6] is: dose: 100.0 mg/kg/injection, schedule: Q01DX009 (ip), vehicle: Klucel (hydroxypropylcellulose) (HPC).
The mark [7] stands for this setting: dose: 200.0 mg/kg/injection, schedule: Q01DX009 (ip), vehicle: Klucel (hydroxypropylcellulose) (HPC).
The mark [8] stands for this setting: dose: 3.12 mg/kg/injection, schedule: Q01DX009 (ip), vehicle: Klucel (hydroxypropylcellulose) (HPC).
The mark [9] stands for this setting: dose: 50.0 mg/kg/injection, schedule: Q01DX009 (ip), vehicle: saline with Tween-80.
The mark [10] stands for this setting: dose: 100.0 mg/kg/injection, schedule: Q01DX009 (ip), vehicle: saline with Tween-80.
The mark [11] stands for this setting: dose: 200.0 mg/kg/injection, schedule: Q01DX009 (ip), vehicle: saline with Tween-80.
The mark [12] stands for this setting: dose: 400.0 mg/kg/injection, schedule: Q01DX009 (ip), vehicle: saline with Tween-80.
The mark [13] stands for this setting: dose: 50.0 mg/kg/injection, schedule: Q01DX009 (ip), vehicle: saline.
The mark [14] stands for this setting: dose: 100.0 mg/kg/injection, schedule: Q01DX009 (ip), vehicle: saline.
Setting [15] is: dose: 200.0 mg/kg/injection, schedule: Q01DX009 (ip), vehicle: saline.
[16] abbreviates: dose: 100.0 mg/kg/injection, schedule: Q04DX003 (ip), vehicle: saline with Tween-80.
The mark [17] stands for this setting: dose: 25.0 mg/kg/injection, schedule: Q01DX009 (ip), vehicle: saline with Tween-80.
[18] abbreviates: dose: 400.0 mg/kg/injection, schedule: Q01DX009 (ip), vehicle: Klucel (hydroxypropylcellulose) (HPC).

In the case of `Cc1cc(C)c(CCl)cc1CCl`, the T/C under setting [1] is 110 % of control; the T/C (dose: 20.0 mg/kg/injection, schedule: Q01DX009 (ip), vehicle: saline with Tween-80) was 95 % of control; the T/C (dose: 20.0 mg/kg/injection, schedule: Q04DX003 (ip), vehicle: saline with Tween-80) is 100 % of control; the T/C (dose: 40.0 mg/kg/injection, schedule: Q01DX009 (ip), vehicle: saline with Tween-80) was 102 % of control; the T/C (dose: 40.0 mg/kg/injection, schedule: Q04DX003 (ip), vehicle: saline with Tween-80) was 100 % of control.
On to `COc1c(CNC(=O)CCl)cc2[nH]c(C)cc2c1CNC(=O)CCl`, for which the T/C under setting [2] is 101 % of control; the T/C under setting [3] was 106 % of control; the T/C under setting [4] was 103 % of control; the T/C under setting [5] was 104 % of control; the T/C under setting [6] is 108 % of control; the T/C under setting [7] was 97 % of control.
`C=CS(C=C)=NS(=O)(=O)c1ccc(C)cc1`: the T/C (dose: 1.56 mg/kg/injection, schedule: Q01DX009 (ip), vehicle: Klucel (hydroxypropylcellulose) (HPC)) is 95 % of control and 108 % of control; the T/C under setting [8] was 95 % of control and 101 % of control; the T/C under setting [2] was 97 % of control and 98 % of control; the T/C under setting [3] was 107 % of control and 110 % of control; the T/C under setting [4] was 88 % of control and 95 % of control.
For the molecule `O=S(=O)(Nc1ccc(-c2ccccc2)cc1)c1ccccc1`, the T/C is, setting by setting: under setting [9], 100 % of control; under setting [10], 91 % of control; under setting [11], 89 % of control.
Regarding `Cc1ccc(S(=O)(=O)Oc2ccc(-c3ccc(Br)cc3)cc2)cc1`, the T/C was 96 % of control under setting [9], 93 % of control under setting [10], 86 % of control under setting [11] and 91 % of control under setting [12].
As for `C/C=C/c1cc2n(c1)C(=O)c1cc(OC3OC(C)C(NC)C(C)(O)C3O)c(C)c(O)c1NC2O` (stereo unspecified), the T/C runs as follows: (dose: 0.02 mg/kg/injection, schedule: Q04DX003 (ip), vehicle: DMSO) 168 % of control; (dose: 0.5 micrograms/kg/injection, schedule: Q04DX003 (ip), vehicle: saline) 184 % of control; (dose: 1.0 micrograms/kg/injection, schedule: Q04DX003 (ip), vehicle: saline) 184 % of control; (dose: 2.0 micrograms/kg/injection, schedule: Q04DX003 (ip), vehicle: saline) 197 % of control; (dose: 16.0 micrograms/kg/injection, schedule: Q04DX003 (ip), vehicle: saline) 151 % of control.
In the case of `[CH3][Hg][O]C(C)=O`, the T/C is 94 % of control under setting [8] and 86 % of control under setting [2].
Turning to `Clc1cc(Cl)c(C[N+]23CN4CN(CN(C4)C2)C3)cc1Cl`, the T/C by setting is: (dose: 25.0 mg/kg/injection, schedule: Q01DX009 (ip), vehicle: saline) 117 % of control; under setting [13], 108 % of control; under setting [14], 111 % of control; under setting [15], 122 % of control.
As to `O=C(O)/C=C/c1ccc(/C=C/C(=O)O)cc1`, the T/C was 111 % of control under setting [16]; 102 % of control (dose: 200.0 mg/kg/injection, schedule: Q04DX003 (ip), vehicle: saline with Tween-80); 100 % of control (dose: 400.0 mg/kg/injection, schedule: Q04DX003 (ip), vehicle: saline with Tween-80).
With `NC(Cc1cc(I)c(Oc2cc(I)c(O)c(I)c2)c(I)c1)C(=O)O` (stereo unspecified), the T/C by setting is: (dose: 1.0 mg/kg/injection, schedule: Q01DX009 (ip), vehicle: saline) 93 % of control; (dose: 2.0 mg/kg/injection, schedule: Q01DX009 (ip), vehicle: saline) 101 % of control; (dose: 4.0 mg/kg/injection, schedule: Q01DX009 (ip), vehicle: saline) 92 % of control; (dose: 16.0 mg/kg/injection, schedule: Q01DX009 (ip), vehicle: saline) 101 % of control.
For `Cc1cccc(NS(=O)(=O)c2ccc(Cl)cc2)c1C`, the T/C is 91 % of control (dose: 75.0 mg/kg/injection, schedule: Q01DX009 (ip), vehicle: Klucel (hydroxypropylcellulose) (HPC)); 95 % of control (dose: 150.0 mg/kg/injection, schedule: Q01DX009 (ip), vehicle: Klucel (hydroxypropylcellulose) (HPC)); 90 % of control (dose: 300.0 mg/kg/injection, schedule: Q01DX009 (ip), vehicle: Klucel (hydroxypropylcellulose) (HPC)).
Consider `CN1CCN(c2ccc([N+](=O)[O-])c3no[n+]([O-])c23)CC1`, for which the T/C was 111 % of control (dose: 5.0 mg/kg/injection, schedule: Q01DX009 (ip), vehicle: saline with Tween-80); 110 % of control (dose: 5.0 mg/kg/injection, schedule: Q01DX011 (ip), vehicle: saline with Tween-80); 107 % of control under setting [1]; 109 % of control (dose: 10.0 mg/kg/injection, schedule: Q01DX011 (ip), vehicle: saline with Tween-80).
Take `CC(C)C1OC(=O)/C=C/C=C/C=C/C=C/C=C/CC(O)C(C)C(O)CC(O)CC(O)CC(O)CC(O)CC(O)CC(O)/C=C/C1C` (stereo unspecified): the T/C (dose: 6.25 mg/kg/injection, schedule: Q01DX009 (ip), vehicle: saline) was 98 % of control.
Regarding `O=c1[nH]cc(B(O)O)c(=O)[nH]1`, the T/C under setting [15] is 118 % of control.
As for `CNNC(=O)NC`, the T/C is, setting by setting: (dose: 1.56 mg/kg/injection, schedule: Q01DX009 (ip), vehicle: saline) 87 % of control; (dose: 3.12 mg/kg/injection, schedule: Q01DX009 (ip), vehicle: saline) 95 % of control; (dose: 12.5 mg/kg/injection, schedule: Q01DX009 (ip), vehicle: saline) 100 % of control.
In the case of `O=C1C(Cl)=C(Nc2ccc(C(=O)Nc3ccc4cc(S(=O)(=O)O)cc(S(=O)(=O)O)c4c3)cc2)C(=O)C(Cl)=C1Nc1ccc(C(=O)Nc2ccc3cc(S(=O)(=O)O)cc(S(=O)(=O)O)c3c2)cc1`, the T/C by setting is: under setting [13], 109 % of control; under setting [14], 102 % of control; under setting [15], 100 % of control.
`C=CCSC(C)CC` (stereo unspecified): the T/C is 108 % of control under setting [17], 119 % of control under setting [9] and 107 % of control under setting [10].
As to `N#CC1CS(=O)(=O)C1`, the T/C is, setting by setting: (dose: 25.0 mg/kg/injection, schedule: Q04DX003 (ip), vehicle: saline with Tween-80) 104 % of control; (dose: 50.0 mg/kg/injection, schedule: Q04DX003 (ip), vehicle: saline with Tween-80) 98 % of control; under setting [16], 99 % of control and 113 % of control.
On to `Nc1ncnc2sc3c(c12)CCCC3`, for which the T/C reads like this: under setting [6], 100 % of control; under setting [7], 101 % of control; under setting [18], 110 % of control.
With `CC(=O)N(C)N(Cc1ccc(C#N)cc1)C(C)=O`, the T/C under setting [4] is 98 % of control; the T/C under setting [5] is 96 % of control; the T/C under setting [6] is 99 % of control; the T/C under setting [7] is 98 % of control; the T/C under setting [18] is 95 % of control.
On to `CC(=O)OC1CCC2(C)C(CCC3C2C(=O)C(OC(C)=O)C2(C)C3CC3OC4(CCC(C)CO4)C(C)C32)C1` (stereo unspecified), for which the T/C was 98 % of control (dose: 1.56 mg/kg/injection, schedule: Q01DX009 (ip), vehicle: saline with Tween-80); 108 % of control (dose: 3.13 mg/kg/injection, schedule: Q01DX009 (ip), vehicle: saline with Tween-80); 91 % of control and 93 % of control (dose: 6.25 mg/kg/injection, schedule: Q01DX009 (ip), vehicle: saline with Tween-80); 89 % of control under setting [17].
As for `CCCCCCCCCCCCOc1ccccn1`, the T/C by setting is: under setting [7], 88 % of control; under setting [18], 86 % of control.
On to `CN(C)N=Nc1c(Cl)cc(Cl)cc1C(N)=O`, for which the T/C is, setting by setting: under setting [10], 119 % of control; under setting [11], 115 % of control.
As for `CCNC1=C(N2CC2)C(=O)C(NCC)=C(N2CC2)C1=O`, the T/C (dose: 0.37 mg/kg/injection, schedule: Q01DX009 (ip), vehicle: saline) was 112 % of control; the T/C (dose: 0.75 mg/kg/injection, schedule: Q01DX009 (ip), vehicle: saline) is 104 % of control and 116 % of control.
On to `CCN(CC)CC(C)(C)CO`, for which the T/C is, setting by setting: under setting [9], 99 % of control; under setting [10], 101 % of control; under setting [11], 89 % of control.
Regarding `CC(SC(C)c1ccccc1)c1ccccc1` (stereo unspecified), the T/C was 101 % of control under setting [10], 99 % of control under setting [11] and 88 % of control under setting [12].
